Results from article PMC13170396 (Journal of controlled release : official journal of the …, 2025).

Key:
[1] = cited from earlier work; for clearance / elimination half-life t1/2 / volume of distribution: murine models
[2] = tested on: p53-positive solid tumors; conditions: clinical; cited from earlier work
[3] = cited from earlier work
[4] = tested on: HCT116 and UISO-Mel29 cells; assay: Cell proliferation assay; type: cell-based, human
[5] = tested on: HCT116, UISO-Mel29, CCD33Co and fibroblasts; assay: Confocal imaging of cell penetration; type: cell-based, human; conditions: AF-p28 20 μM or AF-Arg8 5 μM, 2 h, 37 °C, confocal microscopy, Fig. 2A

| Molecule | primary route of excretion [1] | clearance [1] [mL/min/kg] | elimination half-life t1/2 [1] [h] | volume of distribution [1] [L/kg] | adverse effects, toxicity, immunogenicity in humans [2] | water solubility [3] | effect of CQ on the anti-proliferative effect of p28 ([4]; CQ 10 μM with varying concentrations of p28, 24 h, Fig. 6A, B) | cytotoxic activity in cancer cells ([4]; Fig. S4) | cell penetration, cancer cells compared to normal cells [5] |
| --- | --- | --- | --- | --- | --- | --- | --- | --- | --- |
| CSCC[C@H](NC(=O)CNC(=O)[C@H](CC(=O)O)NC(=O)[C@@H](NC(=O)[C@@H](NC(=O)[C@@H](NC(=O)CNC(=O)[C@H](CCC(N)=O)NC(=O)[C@H](CCSC)NC(=O)[C@H](CC(=O)O)NC(=O)[C@H](C)NC(=O)[C@H](C)NC(=O)[C@@H](NC(=O)[C@H](CO)NC(=O)[C@@H](N)CC(C)C)[C@@H](C)O)C(C)C)C(C)C)[C@@H](C)O)C(=O)N[C@@H](C)C(=O)N[C@@H](CO)C(=O)NCC(=O)N[C@@H](CC(C)C)C(=O)N[C@@H](CC(=O)O)C(=O)N[C@@H](CCCCN)C(=O)N[C@@H](CC(=O)O)C(=O)N[C@@H](Cc1ccc(O)cc1)C(=O)N[C@@H](CC(C)C)C(=O)N[C@@H](CCCCN)C(=O)N1CCC[C@H]1C(=O)N[C@@H](CC(=O)O)C(=O)N[C@@H](CC(=O)O)C(=O)O [p28] | renal clearance | 36.7 | 0.06 | 0.29 | no significant adverse effects, toxicity or immunogenicity | highly water soluble |  |  |  |
| CCN(CC)CCCC(C)Nc1ccnc2cc(Cl)ccc12 (stereo not shown) [CQ, chloroquine] | hepatic clearance | 165 | 46.6 | 667 |  |  | significantly enhanced the effect of p28 | dose-dependent cytotoxic activity |  |
| octaarginine [Arg8] |  |  |  |  |  |  |  |  | penetrated both cancer and normal cells |
